In ChEMBL document CHEMBL4138123, “Design, synthesis and biological evaluation of novel pyrazolochalcones as potential modulators of PI3K/Akt/mTOR pathway and inducers of apoptosis in breast cancer cells” (Eur J Med Chem, 2017):

Tests used:
Format in all cases: functional
K562 = assay: Cytotoxicity against human K562 cells assessed as growth inhibition after 48 hrs by sulforhodamine B assay; conditions: K562, 48 h
COLO 205 = assay: Cytotoxicity against human COLO205 cells assessed as growth inhibition after 48 hrs by sulforhodamine B assay; conditions: COLO 205, 48 h
MDA-MB-435 [1] = assay: Cytotoxicity against human MDA-MB-435 cells assessed as growth inhibition after 48 hrs by sulforhodamine B assay; conditions: MDA-MB-435, 48 h
IGROV-1 [2] = assay: Cytotoxicity against human IGROV1 cells assessed as growth inhibition after 48 hrs by sulforhodamine B assay; conditions: IGROV-1, 48 h
OVCAR-5 = assay: Cytotoxicity against human OVCAR5 cells assessed as growth inhibition after 48 hrs by sulforhodamine B assay; conditions: OVCAR-5, 48 h
NCI/ADR-RES [3] = assay: Cytotoxicity against human NCI/ADR-RES cells assessed as growth inhibition after 48 hrs by sulforhodamine B assay
SK-OV-3 = assay: Cytotoxicity against human SKOV3 cells assessed as growth inhibition after 48 hrs by sulforhodamine B assay; conditions: SK-OV-3, 48 h
A498 = assay: Cytotoxicity against human A498 cells assessed as growth inhibition after 48 hrs by sulforhodamine B assay; conditions: A498, 48 h
PC-3 = assay: Cytotoxicity against human PC3 cells assessed as growth inhibition after 48 hrs by sulforhodamine B assay; conditions: PC-3, 48 h
OVCAR-8 [4] = assay: Cytotoxicity against human OVCAR8 cells assessed as cell growth at 0.01 uM after 48 hrs by sulforhodamine B assay relative to control; conditions: OVCAR-8, 48 h, read-out: Activity
SW-620 [5] = assay: Cytotoxicity against human SW620 cells assessed as cell growth at 0.01 uM after 48 hrs by sulforhodamine B assay relative to control; conditions: SW-620, 48 h, read-out: Activity
NCI-H226 = assay: Cytotoxicity against human NCI-H226 cells assessed as cell growth at 0.01 uM after 48 hrs by sulforhodamine B assay relative to control; conditions: NCI-H226, 48 h, read-out: Activity
HL-60(TB) = assay: Cytotoxicity against human HL-60(TB) cells assessed as cell growth at 0.01 uM after 48 hrs by sulforhodamine B assay relative to control; conditions: HL-60, 48 h, read-out: Activity
MCF7 [6] = assay: Cytotoxicity against human MCF7 cells assessed as cell growth at 0.01 uM after 48 hrs by sulforhodamine B assay relative to control; conditions: MCF7, 48 h, read-out: Activity
CCRF-CEM = assay: Cytotoxicity against human CCRF-CEM cells assessed as cell growth at 0.1 uM after 48 hrs by sulforhodamine B assay relative to control; conditions: read-out: Activity
HOP-62 [7] = assay: Cytotoxicity against human HOP62 cells assessed as cell growth at 0.1 uM after 48 hrs by sulforhodamine B assay relative to control; conditions: HOP-62, 48 h, read-out: Activity
KM12 [8] = assay: Cytotoxicity against human KM12 cells assessed as cell growth at 0.1 uM after 48 hrs by sulforhodamine B assay relative to control; conditions: KM12, 48 h, read-out: Activity
Malme-3M = assay: Cytotoxicity against human MALME-3M cells assessed as cell growth at 0.1 uM after 48 hrs by sulforhodamine B assay relative to control; conditions: read-out: Activity
OVCAR-3 = assay: Cytotoxicity against human OVCAR3 cells assessed as cell growth at 0.1 uM after 48 hrs by sulforhodamine B assay relative to control; conditions: OVCAR-3, 48 h, read-out: Activity
ACHN = assay: Cytotoxicity against human ACHN cells assessed as cell growth at 0.1 uM after 48 hrs by sulforhodamine B assay relative to control; conditions: read-out: Activity
MCF7 [9] = assay: Cytotoxicity against human MCF7 cells assessed as cell growth at 0.1 uM after 48 hrs by sulforhodamine B assay relative to control; conditions: MCF7, 48 h, read-out: Activity
SR [10] = assay: Cytotoxicity against human SR cells assessed as cell growth at 1 uM after 48 hrs by sulforhodamine B assay relative to control; conditions: read-out: Activity
KM12 [11] = assay: Cytotoxicity against human KM12 cells assessed as cell growth at 1 uM after 48 hrs by sulforhodamine B assay relative to control; conditions: KM12, 48 h, read-out: Activity
SF-539 = assay: Cytotoxicity against human SF539 cells assessed as cell growth at 1 uM after 48 hrs by sulforhodamine B assay relative to control; conditions: SF-539, 48 h, read-out: Activity
OVCAR-8 [12] = assay: Cytotoxicity against human OVCAR8 cells assessed as cell growth at 1 uM after 48 hrs by sulforhodamine B assay relative to control; conditions: OVCAR-8, 48 h, read-out: Activity
NCI/ADR-RES [13] = assay: Cytotoxicity against human NCI/ADR-RES cells assessed as cell growth at 1 uM after 48 hrs by sulforhodamine B assay relative to control; conditions: read-out: Activity
SN12C = assay: Cytotoxicity against human SN12C cells assessed as cell growth at 1 uM after 48 hrs by sulforhodamine B assay relative to control; conditions: read-out: Activity
Hs-578T = assay: Cytotoxicity against human Hs 578T cells assessed as cell growth at 1 uM after 48 hrs by sulforhodamine B assay relative to control; conditions: read-out: Activity
T47D = assay: Cytotoxicity against human T47D cells assessed as cell growth at 1 uM after 48 hrs by sulforhodamine B assay relative to control; conditions: read-out: Activity
MOLT-4 = assay: Cytotoxicity against human MOLT4 cells assessed as cell growth at 10 uM after 48 hrs by sulforhodamine B assay relative to control; conditions: MOLT-4, 48 h, read-out: Activity
HOP-62 [14] = assay: Cytotoxicity against human HOP62 cells assessed as cell growth at 10 uM after 48 hrs by sulforhodamine B assay relative to control; conditions: HOP-62, 48 h, read-out: Activity
NCI-H460 = assay: Cytotoxicity against human NCI-H460 cells assessed as cell growth at 10 uM after 48 hrs by sulforhodamine B assay relative to control; conditions: NCI-H460, 48 h, read-out: Activity
MDA-MB-435 [15] = assay: Cytotoxicity against human MDA-MB-435 cells assessed as cell growth at 10 uM after 48 hrs by sulforhodamine B assay relative to control; conditions: MDA-MB-435, 48 h, read-out: Activity
IGROV-1 [16] = assay: Cytotoxicity against human IGROV1 cells assessed as cell growth at 10 uM after 48 hrs by sulforhodamine B assay relative to control; conditions: IGROV-1, 48 h, read-out: Activity
SR [17] = assay: Cytotoxicity against human SR cells assessed as cell growth at 100 uM after 48 hrs by sulforhodamine B assay relative to control; conditions: read-out: Activity
SW-620 [18] = assay: Cytotoxicity against human SW620 cells assessed as cell growth at 100 uM after 48 hrs by sulforhodamine B assay relative to control; conditions: SW-620, 48 h, read-out: Activity
MDA-MB-435 [19] = assay: Cytotoxicity against human MDA-MB-435 cells assessed as cell growth at 100 uM after 48 hrs by sulforhodamine B assay relative to control; conditions: MDA-MB-435, 48 h, read-out: Activity

Structure (SMILES): COc1cc(-c2cc(/C=C/C(=O)c3ccc(F)c(F)c3)[nH]n2)cc(OC)c1OC
- LC50 (concentration killing 50% of cells) (K562): > 100 µM
- TGI (K562): 16.5 µM
- LC50 (COLO 205): 6 µM
- TGI (COLO 205): 3.19 µM
- LC50 (MDA-MB-435 [1]): > 100 µM
- TGI (MDA-MB-435 [1]): 13.3 µM
- LC50 (IGROV-1 [2]): > 100 µM
- TGI (IGROV-1 [2]): 87 µM
- LC50 (OVCAR-5): > 100 µM
- TGI (OVCAR-5): 33.8 µM
- LC50 (NCI/ADR-RES [3]): > 100 µM
- TGI (NCI/ADR-RES [3]): 50.5 µM
- LC50 (SK-OV-3): > 100 µM
- TGI (SK-OV-3): 58.6 µM
- LC50 (A498): > 100 µM
- TGI (A498): 7.13 µM
- LC50 (PC-3): > 100 µM
- TGI (PC-3): 5.72 µM
- growth at 0.01 µM (OVCAR-8 [4]): 95%
- growth at 0.01 µM (SW-620 [5]): 95%
- growth at 0.01 µM (NCI-H226): 99%
- growth at 0.01 µM (HL-60(TB)): 102%
- growth at 0.01 µM (MCF7 [6]): 91%
- growth at 0.1 µM (CCRF-CEM): 96%
- growth at 0.1 µM (HOP-62 [7]): 101%
- growth at 0.1 µM (KM12 [8]): 92%
- growth at 0.1 µM (Malme-3M): 90%
- growth at 0.1 µM (OVCAR-3): 104%
- growth at 0.1 µM (ACHN): 106%
- growth at 0.1 µM (MCF7 [9]): 98%
- growth at 1 µM (SR [10]): 84%
- growth at 1 µM (KM12 [11]): 95%
- growth at 1 µM (SF-539): 90%
- growth at 1 µM (OVCAR-8 [12]): 89%
- growth at 1 µM (NCI/ADR-RES [13]): 95%
- growth at 1 µM (SN12C): 89%
- growth at 1 µM (Hs-578T): 86%
- growth at 1 µM (T47D): 76%
- growth at 10 µM (MOLT-4): -4%
- growth at 10 µM (HOP-62 [14]): 25%
- growth at 10 µM (NCI-H460): -9%
- growth at 10 µM (MDA-MB-435 [15]): 5%
- growth at 10 µM (IGROV-1 [16]): 14%
- growth at 100 µM (SR [17]): 8%
- growth at 100 µM (SW-620 [18]): 1%
- growth at 100 µM (MDA-MB-435 [19]): -34%

Structure (SMILES): COc1ccc(-c2cc(/C=C/C(=O)c3ccc4c(c3)OCO4)[nH]n2)cc1OC
- GI50 (K562): 0.61 µM
- GI50 (COLO 205): 1.55 µM
- GI50 (MDA-MB-435 [1]): 1.72 µM
- GI50 (IGROV-1 [2]): 3.13 µM
- GI50 (OVCAR-5): 1.76 µM
- GI50 (NCI/ADR-RES [3]): 3.43 µM
- GI50 (SK-OV-3): 3.13 µM
- GI50 (A498): 1.27 µM
- GI50 (PC-3): 1.98 µM
